# Measurements reported in patent publication US20230059136A1, “THE COMPOUNDS AND COMPOSITIONS FOR TREATING CONDITIONS ASSOCIATED WITH NLRP ACTIVITY” (Novartis AG, priority 2018, published 2023).
# System: IL-1β production in PMA-differentiated THP-1 cells
# Assay: IL-1β production in PMA-differentiated THP-1 cells stimulated with gramicidin (hTHP-1 assay containing 2% fetal bovine serum)
# Type: cell-based, human
# Conditions: Homo sapiens, THP-1, Table B1; 2% fetal bovine serum; class symbols; read-out: hTHP-1 IC50 (Average IC50 of compounds in hTHP-1 assay)
# Experimental: Procedure 1: IL-1β Production in PMA-Differentiated THP-1 Cells Stimulated with Gramicidin.
# THP-1 cells were purchased from the American Type Culture Collection and sub-cultured according to instructions from the supplier. Cells were cultured in complete RPMI 1640 (containing 10% heat inactivated FBS, penicillin (100 units/ml) and streptomycin (100 μg/ml)), and maintained in log phase prior to experimental setup. Prior to the experiment, compounds were dissolved in dimethyl sulfoxide (DMSO) to generate a 30 mM stock. The compound stock was first pre-diluted in DMSO to 3, 0.34, 0.042 and 0.0083 mM intermediate concentrations and subsequently spotted using Echo550 liquid handler into an empty 384-well assay plate to achieve desired final concentration (e.g. 100, 33, 11, 3.7, 1.2, 0.41, 0.14, 0.046, 0.015, 0.0051, 0.0017 μM). DMSO was backfilled in the plate to achieve a final DMSO assay concentration of 0.37%. The plate was then sealed and stored at room temperature until required.
# THP-1 cells were treated with PMA (Phorbol 12-myristate 13-acetate) (20 ng/ml) for 16-18 hours. On the day of the experiment the media was removed and adherent cells were detached with trypsin for 5 minutes. Cells were then harvested, washed with complete RPMI 1640, spun down, and resuspended in RPMI 1640 (containing 2% heat inactivated FBS, penicillin (100 units/ml) and streptomycin (100 μg/ml). The cells were plated in the 384-well assay plate containing the spotted compounds at a density of 50,000 cells/well (final assay volume 50 μl). Cells were incubated with compounds for 1 hour and then stimulated with gramicidin (5 μM) (Enzo) for 2 hours. Plates were then centrifuged at 340 g for 5 min. Cell free supernatant (40 μL) was collected using a 96-channel PlateMaster (Gilson) and the production of IL-1β was evaluated by HTRF (cisbio). The plates were incubated for 18 h at 4° C. and read using the preset HTRF program (donor emission at 620 nm, acceptor emission at 668 nm) of the SpectraMax i3x spectrophotometer (Molecular Devices, software SoftMax 6). A vehicle only control and a dose titration of CRID3 (100-0.0017 μM) were run concurrently with each experiment.
# Procedure 2: IL-1β Production in PMA-Differentiated THP-1 Cells Stimulated with Gramicidin.
# THP-1 cells were purchased from the American Type Culture Collection and sub-cultured according to instructions from the supplier. Prior to experiments, cells were cultured in complete RPMI 1640 (containing 10% heat inactivated FBS, penicillin (100 units/ml) and streptomycin (100 μg/ml)), and maintained in log phase prior to experimental setup. Prior to the experiment THP-1 were treated with PMA (Phorbol 12-myristate 13-acetate) (20 ng/ml) for 16-18 hours. Compounds were dissolved in dimethyl sulfoxide (DMSO) to generate a 30 mM stock. On the day of the experiment the media was removed and adherent cells were detached with trypsin for 5 minutes. Cells were then harvested, washed with complete RPMI 1640, spun down, resuspended in RPMI 1640 (containing 2% heat inactivated FBS, penicillin (100 units/ml) and streptomycin (100 μg/ml). The cells were plated in a 384-well plate at a density of 50,000 cells/well (final assay volume 50 μl). Compounds were first dissolved in assay medium to obtain a 5× top concentration of 500 μM. 10 step dilutions (1:3) were then undertaken in assay medium containing 1.67% DMSO. 5× compound solutions were added to the culture medium to achieve desired final concentration (e.g. 100, 33, 11, 3.7, 1.2, 0.41, 0.14, 0.046, 0.015, 0.0051, 0.0017 μM). Final DMSO concentration was at 0.37%. Cells were incubated with compounds for 1 hour and then stimulated with gramicidin (5 μM) (Enzo) for 2 hours. Plates were then centrifuged at 340 g for 5 min. Cell free supernatant (40 μL) was collected using a 96-channel PlateMaster (Gilson) and the production of IL-1β was evaluated by HTRF (cisbio). A vehicle only control and a dose titration of CRID3 (100-0.0017 μM) were run concurrently with each experiment. […]
row,IC50 [nM],Structure (SMILES)
1,1000 to 5000,"CC(C)c1cc(F)cc(C(C)C)c1CC(=O)NS(=N)(=O)c1ccc(C(C)(C)O)cc1 (single isomer, unassigned) [Example 2]"
2,200 to 1000,"CC(C)c1cc(F)cc(C(C)C)c1CC(=O)NS(=N)(=O)c1ncc(C(C)(C)O)s1 (single isomer, unassigned) [Example 9]"

# Same assay, conditions: Homo sapiens, THP-1, Table B2; 2% fetal bovine serum; cells printed as numeric bound; read-out: hTHP-1 IC50 (Average IC50 of compounds in hTHP-1 assay)
row,IC50 [nM],Structure (SMILES)
1,> 30000,"COc1ccc(C(C)(C)O)cc1S(N)(=O)=NC(=O)Cc1c(C(C)C)cc(C#N)cc1C(C)C (racemic) [Example 388, (R) and (S)—N-(amino(5-(2-hydroxypropan-2-yl)-2-methoxyphenyl)(oxo)-λ^6-sulfaneylidene)-2-(4-cyano-2,6-diisopropylphenyl)acetamide]"

# Same assay, conditions: Table B1; 2% fetal bovine serum; class symbols; read-out: hTHP-1 IC50 (Average IC50 of compounds in hTHP-1 assay)
row,Structure (SMILES),IC50 [nM]
1,"CC(C)c1cc(C#N)c(F)c(C(C)C)c1CC(=O)N=S(N)(=O)c1ncc(C(C)(C)O)s1 (single isomer, unassigned) [Example 42]",40 to 200
2,"CC(C)c1cc(C#N)c(F)c(C(C)C)c1CC(=O)N=S(N)(=O)c1sc(C(C)(C)O)cc1F (single isomer, unassigned) [Example 44, (S)- or (R)-2-(4-cyano-3-fluoro-2,6-diisopropylphenyl)-N-(3-fluoro-5-(2-hydroxypropan-2-yl)thiophen-2-ylsulfonimidoyl)acetamide]",40 to 200
3,"CC(C)c1cc(C#N)c(F)c(C(C)C)c1CC(=O)N=S(N)(=O)c1sc(C(C)(C)O)cc1F (single isomer, unassigned) [Example 45, (R)- or (S)-2-(4-cyano-3-fluoro-2,6-diisopropylphenyl)-N-(3-fluoro-5-(2-hydroxypropan-2-yl)thiophen-2-ylsulfonimidoyl)acetamide]",1000 to 5000
4,"CC(C)c1cc(OC(F)F)cc(C(C)C)c1CC(=O)N=S(N)(=O)c1cnc(C(C)(C)O)s1 (single isomer, unassigned) [Example 48, (S)- or (R)-2-(4-(difluoromethoxy)-2,6-diisopropylphenyl)-N-(2-(2-hydroxypropan-2-yl)thiazol-5-ylsulfonimidoyl)acetamide]",40 to 200
5,"CC(C)c1cc(OC(F)F)cc(C(C)C)c1CC(=O)N=S(N)(=O)c1cnc(C(C)(C)O)s1 (single isomer, unassigned) [Example 49, (R)- or (S)-2-(4-(difluoromethoxy)-2,6-diisopropylphenyl)-N-(2-(2-hydroxypropan-2-yl)thiazol-5-ylsulfonimidoyl)acetamide]",5000 to 30000
6,"CC(C)c1cc(F)cc(C(C)C)c1CC(=O)N=S(N)(=O)c1sc(C(C)(C)O)cc1F (single isomer, unassigned) [Example 50, (S)- or (R)-2-(4-fluoro-2,6-diisopropylphenyl)-N-(3-fluoro-5-(2-hydroxypropan-2-yl)thiophen-2-ylsulfonimidoyl)acetamide]",8 to 40
7,"CC(C)c1cc(F)cc(C2CC2)c1CC(=O)N=S(N)(=O)c1sc(C(C)(C)O)cc1F (single isomer, unassigned) [Example 52, (S)- or (R)-2-(2-cyclopropyl-4-fluoro-6-isopropylphenyl)-N-(3-fluoro-5-(2-hydroxypropan-2-yl)thiophen-2-ylsulfonimidoyl)acetamide]",8 to 40
8,"CC(C)c1cc(F)cc(C2CC2)c1CC(=O)N=S(N)(=O)c1sc(C(C)(C)O)cc1F (single isomer, unassigned) [Example 53, (R)- or (S)-2-(2-cyclopropyl-4-fluoro-6-isopropylphenyl)-N-(3-fluoro-5-(2-hydroxypropan-2-yl)thiophen-2-ylsulfonimidoyl)acetamide]",1000 to 5000
9,"CC(C)c1c(F)c(C#N)cc(C2CC2)c1CC(=O)N=S(N)(=O)c1sc(C(C)(C)O)cc1F (single isomer, unassigned) [Example 55, (R)- or (S)-2-(4-cyano-6-cyclopropyl-3-fluoro-2-isopropylphenyl)-N-(3-fluoro-5-(2-hydroxypropan-2-yl)thiophen-2-ylsulfonimidoyl)acetamide]",1000 to 5000
10,"CC(C)c1cc(Cl)c(F)c(C2CC2)c1CC(=O)N=S(N)(=O)c1sc(C(C)(C)O)cc1F (single isomer, unassigned) [Example 56, (S)- or (R)-2-(4-chloro-2-cyclopropyl-3-fluoro-6-isopropylphenyl)-N-(3-fluoro-5-(2-hydroxypropan-2-yl)thiophen-2-ylsulfonimidoyl)acetamide]",200 to 1000
11,"CC(C)c1cc(C#N)cc(C(C)C)c1CC(=O)N=S(N)(=O)c1sc(C(C)(C)O)nc1CO (single isomer, unassigned) [Example 65]",5000 to 30000

# Second part, the molecule after the results:
row,IC50 [nM],Structure (SMILES)
1,1000 to 5000,"CC(C)c1cc(C#N)c(F)c(C(C)C)c1CC(=O)N=S(N)(=O)c1ncc(C(C)(C)O)s1 (single isomer, unassigned) [Example 43]"
2,200 to 1000,"CC(C)c1cc(F)cc(C(C)C)c1CC(=O)N=S(N)(=O)c1sc(C(C)(C)O)cc1F (single isomer, unassigned) [Example 51, (R)- or (S)-2-(4-fluoro-2,6-diisopropylphenyl)-N-(3-fluoro-5-(2-hydroxypropan-2-yl)thiophen-2-ylsulfonimidoyl)acetamide]"
3,8 to 40,"CC(C)c1c(F)c(C#N)cc(C2CC2)c1CC(=O)N=S(N)(=O)c1sc(C(C)(C)O)cc1F (single isomer, unassigned) [Example 54, (S)- or (R)-2-(4-cyano-6-cyclopropyl-3-fluoro-2-isopropylphenyl)-N-(3-fluoro-5-(2-hydroxypropan-2-yl)thiophen-2-ylsulfonimidoyl)acetamide]"
4,1000 to 5000,"CC(C)c1cc(Cl)c(F)c(C2CC2)c1CC(=O)N=S(N)(=O)c1sc(C(C)(C)O)cc1F (single isomer, unassigned) [Example 57, (R)- or (S)-2-(4-chloro-2-cyclopropyl-3-fluoro-6-isopropylphenyl)-N-(3-fluoro-5-(2-hydroxypropan-2-yl)thiophen-2-ylsulfonimidoyl)acetamide]"
5,40 to 200,"Cc1nc(C(C)(C)O)sc1S(N)(=O)=NC(=O)Cc1c(C(C)C)cc(C#N)cc1C(C)C (single isomer, unassigned) [Example 60, (S)- or (R)-2-(4-cyano-2,6-diisopropylphenyl)-N-(2-(2-hydroxypropan-2-yl)-4-methylthiazole-5-sulfonimidoyl)acetamide]"
6,5000 to 30000,"Cc1nc(C(C)(C)O)sc1S(N)(=O)=NC(=O)Cc1c(C(C)C)cc(C#N)cc1C(C)C (single isomer, unassigned) [Example 61, (R)- or (S)-2-(4-cyano-2,6-diisopropylphenyl)-N-(2-(2-hydroxypropan-2-yl)-4-methylthiazole-5-sulfonimidoyl)acetamide]"
7,200 to 1000,"CC(C)c1cc(C#N)cc(C(C)C)c1CC(=O)N=S(N)(=O)c1sc(C(C)(C)O)nc1CO (single isomer, unassigned) [Example 64, N-(amino(4-(hydroxymethyl)-2-(2-hydroxypropan-2-yl)thiazol-5-yl)(oxo)-λ^6-sulfaneylidene)-2-(4-cyano-2,6-diisopropylphenyl)acetamide]"
8,200 to 1000,"COCc1cc(C(C)C)c(CC(=O)N=S(N)(=O)c2sc(C(C)(C)O)nc2CO)c(C(C)C)c1 (single isomer, unassigned) [Example 68, (S)- or (R)-2-(2,6-diisopropyl-4-(methoxymethyl)phenyl)-N-(4-(hydroxymethyl)-2-(2-hydroxypropan-2-yl)thiazol-5-ylsulfonimidoyl)acetamide]"
